Measured values taken from PubChem BioAssay AID624460 (Sanford-Burnham Center for Chemical Genomics, 2012).
Where “and” joins values, the source holds several entries; their conditions need not be identical. Identical values can stand only once. Calls of active or inactive are those of the source.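 The calls were made as follows: active = protection of heart cells from peroxide damage with half-maximal concentration of 20 µM or lower (some results past the limit were not filed as active); inactive = the rest.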

Test system: HL-1 cardiomyocytes, H2O2 injury, ATPLite viability, 2 h
Test: cardiomyocyte survival under H2O2 injury – HL-1 cells, peroxide, set 2, SAR follow-up (AID 624460)

Structure (SMILES): COc1ccc(-c2cc(C(=O)Nc3cccc(C(C)=O)c3)c3ccccc3n2)cc1
- EC50: > 79 µM (inactive)

Structure (SMILES): CCN(CC(=O)Nc1ccc(C)cc1)C(=O)c1cc(-c2cccs2)nn1-c1ccccc1
- EC50: > 79 µM (inactive)

Structure (SMILES): COc1ccc2c(c1OC)C(=O)N1c3ccccc3C(=O)N(c3cccc(Br)c3)C21 (stereo not drawn)
- EC50: 3.29 µM and > 79 µM (inactive)

Structure (SMILES): COc1cc(-c2cc(C(=O)Nc3ccccc3)c3ccccc3n2)cc(OC)c1OC
- EC50: > 79 µM (inactive)

Structure (SMILES): COc1cc(-c2cc(C(=O)Nc3cccc(C(C)=O)c3)c3cc(Cl)ccc3n2)cc(OC)c1OC
- EC50: 3.26 µM

Structure (SMILES): COc1cc(-c2cc(C(=O)Nc3cccc(C(F)(F)F)c3)c3ccccc3n2)cc(OC)c1OC
- EC50: > 79 µM (inactive)

Structure (SMILES): CCOC(=O)c1cccc(NC(=O)c2cc(-c3cc(OC)c(OC)c(OC)c3)nc3ccccc23)c1
- EC50: 3.15 µM

Structure (SMILES): COc1ccc2c(c1OC)C(=O)N1c3ccccc3C(=O)N(c3ccc(C(C)(C)C)cc3)C21 (stereo not drawn)
- EC50: > 79 µM (inactive)

Structure (SMILES): COc1cc(-c2cc(C(=O)Nc3cccc(C(C)=O)c3)c3ccccc3n2)cc(OC)c1OC
- EC50: 1.47 µM and 8.54 µM

Structure (SMILES): COc1ccc2c(c1OC)C(=O)N1c3ccccc3C(=O)N(c3ccc(C)cc3)C21 (stereo not drawn)
- EC50: > 79 µM (inactive)

Structure (SMILES): COc1ccc2c(c1OC)C(=O)N1c3ccccc3C(=O)N(c3ccccc3)C21 (stereo not drawn)
- EC50: > 79 µM (inactive)

Structure (SMILES): COc1ccc2c(c1OC)C(=O)N1c3ccccc3C(=O)N(c3cccc(Cl)c3)C21 (stereo not drawn)
- EC50: > 79 µM (inactive)

Structure (SMILES): COc1cc(-c2cc(C(=O)Nc3ccc(C(C)=O)cc3)c3ccccc3n2)cc(OC)c1OC
- EC50: 9.93 µM

Structure (SMILES): CCN(CC(=O)Nc1ccc(F)cc1)C(=O)c1cc(-c2cccs2)nn1-c1ccccc1
- EC50: > 79 µM (inactive)

Structure (SMILES): COc1cccc(N2C(=O)c3ccccc3N3C(=O)c4ccccc4C23)c1 (stereo not drawn)
- EC50: > 79 µM (inactive)

Structure (SMILES): COc1ccc2c(c1OC)C(=O)N1c3ccccc3C(=O)N(Cc3ccccc3Cl)C21 (stereo not drawn)
- EC50: > 79 µM (inactive)

Structure (SMILES): COc1cccc(CNC(=O)c2cc(-c3cc(OC)c(OC)c(OC)c3)nc3ccccc23)c1
- EC50: 10.7 µM (inactive)

Structure (SMILES): COc1cccc(N2C(=O)c3ccccc3N3C(=O)c4c(ccc(OC)c4OC)C23)c1 (stereo not drawn)
- EC50: > 79 µM (inactive)

Structure (SMILES): CCN(CC(=O)Nc1ccc(OC)cc1)C(=O)c1cc(-c2cccs2)nn1-c1ccccc1
- EC50: 70.2 µM (inactive) and > 79 µM (inactive)

Structure (SMILES): COc1ccc2c(c1OC)C(=O)N1c3ccccc3C(=O)N(c3cccc(C)c3)C21 (stereo not drawn)
- EC50: 60.3 µM (inactive)

Structure (SMILES): COc1ccc(N2C(=O)c3ccccc3N3C(=O)c4c(ccc(OC)c4OC)C23)cc1 (stereo not drawn)
- EC50: 23.5 µM (inactive)

Structure (SMILES): COc1cc(-c2cc(C(=O)Nc3cccc(Cl)c3)c3ccccc3n2)cc(OC)c1OC
- EC50: > 79 µM (inactive)

Structure (SMILES): COc1cc(-c2cc(C(=O)Nc3cccc(F)c3)c3ccccc3n2)cc(OC)c1OC
- EC50: 16.4 µM (inactive)

Structure (SMILES): COc1cc(-c2cc(C(=O)Nc3cccc(C)c3)c3ccccc3n2)cc(OC)c1OC
- EC50: > 79 µM (inactive)

Structure (SMILES): COc1ccc(-c2cc(C(=O)Nc3cccc(C(C)=O)c3)c3ccccc3n2)cc1OC
- EC50: > 79 µM (inactive)

Structure (SMILES): O=C1c2ccccc2N2C(=O)c3ccccc3C2N1c1ccccc1 (stereo not drawn)
- EC50: > 79 µM (inactive)

Structure (SMILES): COc1ccc(NC(=O)c2cc(-c3cc(OC)c(OC)c(OC)c3)nc3ccccc23)cc1
- EC50: 10.2 µM (inactive)

Structure (SMILES): COc1cccc(NC(=O)c2cc(-c3cc(OC)c(OC)c(OC)c3)nc3ccccc23)c1
- EC50: 9.39 µM

Structure (SMILES): CC(=O)c1cccc(NC(=O)c2cc(-c3ccccc3)nc3ccccc23)c1
- EC50: > 79 µM (inactive)

Structure (SMILES): COc1cccc(-c2cc(C(=O)Nc3cccc(C(C)=O)c3)c3ccccc3n2)c1
- EC50: > 79 µM (inactive)

Structure (SMILES): CCN(CC(=O)Nc1ccccc1)C(=O)c1cc(-c2cccs2)nn1-c1ccccc1
- EC50: > 79 µM (inactive)

Structure (SMILES): CCN(CC(=O)Nc1ccc(OC)cc1)C(=O)c1cc(-c2cc(OC)c(OC)c(OC)c2)nc2ccccc12
- EC50: 9.39 µM

Structure (SMILES): O=C1c2ccccc2N2C(=O)c3ccccc3C2N1c1cccc(Br)c1 (stereo not drawn)
- EC50: > 79 µM (inactive)

Structure (SMILES): COc1ccc2c(c1OC)C(=O)N1c3ccccc3C(=O)N(c3cccc(F)c3)C21 (stereo not drawn)
- EC50: 34.7 µM (inactive)

Structure (SMILES): COc1ccc2c(c1OC)C(=O)N1c3ccccc3C(=O)N(c3ccc(Br)cc3)C21 (stereo not drawn)
- EC50: > 79 µM (inactive)

Structure (SMILES): COc1cccc(CNC(=O)c2cc(-c3ccc(OC)c(OC)c3)nc3ccccc23)c1
- EC50: 10.6 µM (inactive)

Structure (SMILES): COc1ccc2c(c1OC)C(=O)N1c3ccccc3C(=O)N(Cc3cccc(Cl)c3)C21 (stereo not drawn)
- EC50: > 79 µM (inactive)

Structure (SMILES): COc1ccc2c(c1OC)C(=O)N1c3ccccc3C(=O)N(c3cccc(C(F)(F)F)c3)C21 (stereo not drawn)
- EC50: > 79 µM (inactive)
